Data: patent US8748608B2, “4-phenylpiperazine derivatives with functionalized linkers as dopamine D3 receptor selective ligands and methods of use” (The United States of America as Represented by the …, priority 2007, dated 2014)
Where two headings read alike, the source gives them in different places.

Tests used:
[1] = molecular target: human dopamine D3 receptor (Homo sapiens (Human), UniProt P35462); experiment: Human D2-like receptor competition binding in HEK cells, D3; settings: for D2/D3: ratio of Ki at D2 over Ki at D3
Chain of human dopamine D3 receptor (P35462 whole entry): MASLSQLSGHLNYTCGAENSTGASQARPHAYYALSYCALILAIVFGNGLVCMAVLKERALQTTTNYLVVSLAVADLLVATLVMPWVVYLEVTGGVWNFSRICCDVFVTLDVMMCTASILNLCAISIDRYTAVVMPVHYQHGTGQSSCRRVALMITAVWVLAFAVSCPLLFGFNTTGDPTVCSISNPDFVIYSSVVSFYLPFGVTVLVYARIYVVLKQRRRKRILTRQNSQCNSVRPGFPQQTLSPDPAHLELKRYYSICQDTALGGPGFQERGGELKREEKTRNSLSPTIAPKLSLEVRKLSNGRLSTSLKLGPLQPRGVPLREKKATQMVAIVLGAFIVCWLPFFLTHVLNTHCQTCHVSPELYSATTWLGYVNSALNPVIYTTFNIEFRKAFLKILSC
From the text: (§1) Human dopamine D2-long (D2) and D3 (D3) receptors were expressed in HEK cells. In brief, stably transfected HEK cells expressing the human D2-long and the D3 dopamine receptor were developed using the pIRES bicistronic expression vector (CLONTECH; Palo Alto, Calif.). […] For comparison, human dopamine D4 (D4) receptors were obtained from HEK 293 cells stably transfected with a PCR product of a human cDNA coding for the D4.4 form of the human D4 dopamine receptor.
(§2) The procedures to determine the binding affinities at the human dopamine D2-like receptors, the binding affinities at the serotonin 5HT1A, 5HT2A and 5HT2c receptors and functional mitogenesis assay are known in the art. […] Both of these references are incorporated by reference.

[2] = molecular target: T1, human D4.4 dopamine receptor (Homo sapiens (Human), UniProt P21917); experiment: Human D2-like receptor competition binding in HEK cells, D4; settings: for Ki: HEK 293 cells, hD4.4; for D4/D3 Ki ratio: head printed D4/D2, values correspond to D4 Ki over D3 Ki
T1 sequence (P21917 whole entry): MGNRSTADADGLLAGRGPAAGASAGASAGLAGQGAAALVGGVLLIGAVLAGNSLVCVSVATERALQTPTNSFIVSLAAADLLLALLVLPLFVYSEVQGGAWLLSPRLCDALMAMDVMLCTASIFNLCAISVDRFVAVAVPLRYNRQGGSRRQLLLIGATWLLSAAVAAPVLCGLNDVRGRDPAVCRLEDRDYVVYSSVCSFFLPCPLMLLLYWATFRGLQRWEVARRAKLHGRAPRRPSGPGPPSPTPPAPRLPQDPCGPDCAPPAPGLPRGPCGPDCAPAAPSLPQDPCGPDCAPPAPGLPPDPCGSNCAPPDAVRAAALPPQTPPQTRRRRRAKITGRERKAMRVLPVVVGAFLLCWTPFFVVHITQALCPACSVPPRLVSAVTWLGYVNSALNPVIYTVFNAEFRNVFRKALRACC
From the text: as §1, §2

[3] = molecular target: human dopamine D2-long (D2) receptor (Homo sapiens (Human), UniProt P14416); experiment: Human D2-like receptor competition binding in HEK cells, D2; settings: hD2L
Chain of human dopamine D2-long (D2) receptor (P14416 whole entry): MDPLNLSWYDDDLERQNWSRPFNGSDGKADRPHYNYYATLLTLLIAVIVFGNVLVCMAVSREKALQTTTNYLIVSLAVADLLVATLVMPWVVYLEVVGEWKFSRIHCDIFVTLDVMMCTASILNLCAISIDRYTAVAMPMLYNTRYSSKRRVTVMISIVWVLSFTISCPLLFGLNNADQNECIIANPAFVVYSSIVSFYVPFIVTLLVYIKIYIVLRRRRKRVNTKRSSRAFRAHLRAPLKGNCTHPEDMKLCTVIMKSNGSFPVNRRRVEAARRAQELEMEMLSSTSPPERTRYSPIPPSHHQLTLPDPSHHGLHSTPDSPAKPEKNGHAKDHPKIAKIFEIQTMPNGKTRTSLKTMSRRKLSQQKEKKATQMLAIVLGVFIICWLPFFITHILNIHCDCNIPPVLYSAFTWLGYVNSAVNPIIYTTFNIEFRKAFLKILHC
From the text: as §1, §2

[4] = molecular target: serotonin 5HT1A receptor (Homo sapiens (Human), UniProt P08908); experiment: Serotonin receptor binding, 5HT1A; settings: ratio of affinities
Chain of serotonin 5HT1A receptor (P08908 whole entry): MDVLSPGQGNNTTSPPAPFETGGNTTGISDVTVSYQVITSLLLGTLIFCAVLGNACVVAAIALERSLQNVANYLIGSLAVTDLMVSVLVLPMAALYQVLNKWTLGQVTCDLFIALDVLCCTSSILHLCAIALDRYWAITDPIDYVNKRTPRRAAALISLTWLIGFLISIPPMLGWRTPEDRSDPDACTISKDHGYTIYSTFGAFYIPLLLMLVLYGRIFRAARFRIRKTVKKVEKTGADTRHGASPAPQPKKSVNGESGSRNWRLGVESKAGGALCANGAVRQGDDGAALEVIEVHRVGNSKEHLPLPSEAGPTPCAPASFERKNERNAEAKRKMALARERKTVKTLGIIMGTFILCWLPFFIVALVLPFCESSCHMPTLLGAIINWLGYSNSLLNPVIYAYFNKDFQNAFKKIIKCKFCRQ
From the text: (§3) The procedures to determine the binding affinities at the human dopamine D2-like receptors, the binding affinities at the serotonin 5HT1A, 5HT2A and 5HT2c receptors and functional mitogenesis assay are known in the art. See J. Med. Chem. 2005, 48, 839-848. See also, NIDA Research Monograph #178, Proceedings of the College of Drug Dependence, p. 440-466, 1998. Both of these references are incorporated by reference.

[5] = molecular target: T2, D2 receptor (human) in CHOp-cells (Homo sapiens (Human), UniProt P14416); experiment: D2 stimulation of mitogenesis (agonist assay); type: cell-based; settings: for EC50: read-out: partial agonist activity: EC50, D2
T2 sequence (P14416 whole entry): as the sequence (P14416 whole entry) above
Protocol: (§4) The cells were incubated at 37° C. in α-MEM with 10% FBS, 0.05% penicillin-streptomycin, and 200 μg/mL of G418. After 48 hours, the cells were rinsed twice with serum-free α-MEM and incubated for 24 hours at 37° C. In the functional assay for agonism, the medium was removed and replaced with 90 μl of serum-free α-MEM and 10 μl of test compound in sterile water; in the antagonist assay, the test compound was diluted in sterile water plus 30 nM quinpirole. After another 24-hour incubation at 37° C., 0.25 μCi of [^3H]thymidine was added to each well and the plates were further incubated for 2 hours at 37° C. The cells were then trypsinized, and the plates were filtered and counted as usual in the art. Quinpirole was run on every plate as an internal standard.
as §3

[6] = molecular target: T3, human dopamine D3 receptors in CHO cells (Homo sapiens (Human), UniProt P35462); experiment: D3 stimulation of mitogenesis (agonist assay); type: cell-based; settings: CHOp cells; for EC50: read-out: partial agonist activity: EC50, D3 (converted)
T3 sequence (P35462 whole entry): as the sequence (P35462 whole entry) above
Protocol: as §4, §3

[7] = molecular target: serotonin 5HT2A receptor (Homo sapiens (Human), UniProt P28223); experiment: Serotonin receptor binding, 5HT2A; settings: ratio of affinities
Chain of serotonin 5HT2A receptor (P28223 whole entry): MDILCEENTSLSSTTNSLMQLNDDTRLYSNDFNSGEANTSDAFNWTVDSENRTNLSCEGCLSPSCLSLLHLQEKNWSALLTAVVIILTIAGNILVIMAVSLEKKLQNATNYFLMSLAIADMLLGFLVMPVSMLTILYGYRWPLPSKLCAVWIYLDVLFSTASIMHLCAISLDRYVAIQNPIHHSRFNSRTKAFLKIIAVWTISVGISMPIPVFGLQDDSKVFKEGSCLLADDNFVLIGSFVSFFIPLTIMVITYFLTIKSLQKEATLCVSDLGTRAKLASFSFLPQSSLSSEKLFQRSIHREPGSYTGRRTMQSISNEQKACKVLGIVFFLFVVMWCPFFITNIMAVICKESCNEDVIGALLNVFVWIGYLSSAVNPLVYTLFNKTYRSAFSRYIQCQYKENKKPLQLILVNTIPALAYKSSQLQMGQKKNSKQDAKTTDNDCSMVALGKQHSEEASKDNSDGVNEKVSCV
From the text: as §2

[8] = molecular target: serotonin 5HT2c receptor (Homo sapiens (Human), UniProt P28335); experiment: Serotonin receptor binding, 5HT2c; settings: ratio of affinities, 5HT2c over D3
Chain of serotonin 5HT2c receptor (P28335 33-458): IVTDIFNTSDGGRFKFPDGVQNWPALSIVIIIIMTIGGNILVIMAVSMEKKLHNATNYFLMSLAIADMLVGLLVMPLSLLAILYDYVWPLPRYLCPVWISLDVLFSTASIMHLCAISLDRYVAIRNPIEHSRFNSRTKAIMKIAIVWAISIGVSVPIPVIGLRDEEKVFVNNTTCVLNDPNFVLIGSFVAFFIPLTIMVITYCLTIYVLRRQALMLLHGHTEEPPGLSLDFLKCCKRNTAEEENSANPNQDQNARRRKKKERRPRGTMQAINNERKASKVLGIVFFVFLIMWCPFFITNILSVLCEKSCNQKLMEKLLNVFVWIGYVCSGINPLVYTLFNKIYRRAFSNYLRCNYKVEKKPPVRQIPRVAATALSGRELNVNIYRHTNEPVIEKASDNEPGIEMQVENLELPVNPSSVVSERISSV
From the text: as §2

[9] = molecular target: T2, D2 receptor (human) in CHOp-cells; experiment: D2 inhibition of quinpirole stimulation of mitogenesis (antagonist assay); type: cell-based; settings: inhibition of 30 nM quinpirole stimulated mitogenesis, read-out: IC50 ± S.E.M., D2
Protocol: as §4, §2

[10] = molecular target: T3, human dopamine D3 receptors in CHO cells; experiment: D3 inhibition of quinpirole stimulation of mitogenesis (antagonist assay); type: cell-based; settings: inhibition of 30 nM quinpirole stimulated mitogenesis, CHOp cells; read-out: IC50 ± S.E.M., D3
Protocol: as §4, §2

[11] = tested on: σ1 binding sites; settings: cited from earlier work
[12] = molecular target: D1a dopamine receptors (Homo sapiens (Human), UniProt P21728); settings: cited from earlier work
Chain of D1a dopamine receptors (P21728 whole entry): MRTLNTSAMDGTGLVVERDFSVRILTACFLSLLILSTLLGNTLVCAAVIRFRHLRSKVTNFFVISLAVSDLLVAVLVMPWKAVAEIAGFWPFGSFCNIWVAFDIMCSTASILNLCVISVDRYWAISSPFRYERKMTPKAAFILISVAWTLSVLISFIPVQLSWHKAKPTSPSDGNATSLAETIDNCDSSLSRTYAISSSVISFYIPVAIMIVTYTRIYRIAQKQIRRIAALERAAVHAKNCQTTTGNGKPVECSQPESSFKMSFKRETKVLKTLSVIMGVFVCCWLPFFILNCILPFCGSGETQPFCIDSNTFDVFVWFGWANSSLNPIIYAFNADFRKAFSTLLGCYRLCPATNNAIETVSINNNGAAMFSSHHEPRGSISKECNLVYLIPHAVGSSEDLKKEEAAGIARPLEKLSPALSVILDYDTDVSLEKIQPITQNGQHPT

[13] = tested on: σ2 binding sites; settings: cited from earlier work
[14] = molecular target: T1, human D4.4 dopamine receptor; settings: HEK 293 cells; relative to D2 and D3; cited from earlier work
[15] = HEK cells, hD3, read-out: D3 Ki
[16] = Table 3, unit inferred, with spread, read-out: D3 binding affinity

| SMILES | Ki [1, 15] | Ki [1, 16] | D2/D3 [1] | Ki [2] | D4/D3 Ki ratio [2] | Ki [3] | 5HT1A/D3 [4] | partial agonist activity: % stimulation, D2 [5] | EC50 [5] | partial agonist activity: % stimulation, D3 [6] | EC50 [6] | 5HT2A/D3 [7] | 5HT2c/D [8] | IC50 [9] | IC50 [10] | affinity to σ1 binding sites [11] | affinity to D1a dopamine receptors [12] | affinity to σ2 binding sites [13] | fold lower affinity to human D4.4 dopamine receptors [14] |
| --- | --- | --- | --- | --- | --- | --- | --- | --- | --- | --- | --- | --- | --- | --- | --- | --- | --- | --- | --- |
| O=C(NCCC(O)CN1CCN(c2cccc(Cl)c2Cl)CC1)c1ccc(-c2ccccn2)cc1 (stereo not shown) [Compound 16, N-(4-(4-(2,3-Dichlorophenyl)piperazin-1-yl)-3-hydroxybutyl)-4-pyridin-2-yl-benzamide] | 3 nM | 3 ± 0.2 nM | 89 | 4620 nM | 1540 | 267 nM | 11 | 26% | 15.8 ± 2.7 nM | 48% | 1 ± 0.1 nM | 14 | 38 | – | – | – | – | – | – |
| Cc1cccnc1-c1ccc(C(=O)NC/C=C/CN2CCN(c3cccc(Cl)c3Cl)CC2)cc1 [Compound 11, N-(4-(4-(2,3-Dichlorophenyl)piperazin-1-yl)-trans-but-2-enyl)-4-(3-methyl-pyridin-2-yl)-benzamide] | 1.6 nM | 1.6 ± 0.4 nM | 58 | – | – | 92 nM | 58 | – | – | – | – | 29 | 19 | 368 ± 113 nM | 25.6 ± 8.5 nM | – | – | – | – |
| COc1ccccc1N1CCN(C/C=C/CNC(=O)c2ccc(-c3ccccn3)cc2)CC1 [Compound 14, N-(4-(4-(2-Methoxy-phenyl)-piperazin-1-yl)-trans-but-2-enyl)-4-pyridin-2-yl-benzamide] | 2.9 nM | 2.9 ± 1.1 nM | – | – | – | – | – | – | – | – | – | – | – | – | 42.6 ± 7.9 nM | – | – | – | – |
| COc1ccccc1N1CCN(C/C=C/CNC(=O)c2ccc3c(c2)Cc2ccccc2-3)CC1 [Compound 15, N-(4-(4-(2-methoxyphenyl)piperazin-1-yl)-trans-but-2-enyl)-9H-fluorene-2-carboxamide] | – | – | – | – | – | 48.4 nM | – | – | – | – | – | – | – | 179 ± 48 nM | – | – | – | – | – |
| COc1cc([125I])cc(C(=O)NC2CC3CCCC(C2)N3Cc2ccccc2)c1OC (stereo not shown) [^125I-IABN] | – | – | – | – | – | – | – | – | – | – | – | – | – | – | – | low affinity | low affinity | low affinity | 7- to 10 fold |
| O=C(NCCC(O)CN1CCN(c2cccc(Cl)c2Cl)CC1)c1ccc2c(c1)Cc1ccccc1-2 (stereo not shown) [Compound 17] | 1.8 nM | 1.8 nM | 177 | 16400 nM | 9110 | 319 nM | 1006 | – | – | 26% | 42 ± 1.3 nM | 303 | 1572 | – | – | – | – | – | – |
| CC(=O)OC(CCNC(=O)c1ccc(-c2ccccn2)cc1)CN1CCN(c2cccc(Cl)c2Cl)CC1 (stereo not shown) [Compound 20, 1-(4-(2,3-Dichlorophenyl)piperazin-1-yl)-4-(4-(pyridin-2-yl)-benzamido)-butan-2-yl acetate] | 11.7 nM | 11.7 ± 1 nM | 11 | – | – | 134 nM | 10 | – | – | 47% | 3.9 ± 1.4 nM | 7 | 7 | – | – | – | – | – | – |
| Cc1cccc(-c2ccc(C(=O)NC/C=C/CN3CCN(c4cccc(Cl)c4Cl)CC3)cc2)n1 [Compound 10, N-(4-(4-(2,3-Dichloro-phenyl)-piperazin-1-yl)-trans-but-2-enyl)-4-(6-methyl-pyridin-2-yl)-benzamide] | 1.4 nM | 1.4 ± 0.3 nM | 75 | – | – | 105 nM | 221 | – | – | – | – | 66 | 69 | 1300 ± 320 nM | 6.7 ± 2.6 nM | – | – | – | – |
| O=C(NC/C=C/CN1CCN(c2cccc(Cl)c2Cl)CC1)c1ccc(-c2cccc(=O)[nH]2)cc1 [Compound 9, N-(4-(4-(2,3-Dichloro-phenyl)-piperazin-1-yl)-trans-but-2-enyl)-4-(6-oxo-1,6-dihydro-pyridin-2-yl)-benzamide] | 0.6 nM | 0.6 ± 0.1 nM | – | – | – | 23.6 nM | – | – | – | – | – | – | – | 41 ± 8 nM | – | – | – | – | – |
| O=C(NC/C=C/CN1CCN(c2cccc(Cl)c2Cl)CC1)c1ccc(-c2cccc[n+]2[O-])cc1 [Compound 12, N-(4-(4-(2,3-Dichloro-phenyl)-piperazin-1-yl)-trans-but-2-enyl)-4-(pyridin-N-oxide-2-yl)-benzamide] | 1.1 nM | 1.1 ± 0.3 nM | – | – | – | 25.8 nM | – | 31% | 231 nM | – | – | – | – | 22.9 ± 2 nM | – | – | – | – | – |
| O=C(NCC(O)CCN1CCN(c2cccc(Cl)c2Cl)CC1)c1ccc(-c2ccccn2)cc1 (stereo not shown) [Compound 21, N-(4-(4-(2,3-Dichlorophenyl)piperazin-1-yl)-2-hydroxybutyl)-4-(pyridin-2-yl)-benzamide] | 0.5 nM | 0.5 ± 0.1 nM | 57 | – | – | 28.4 nM | 30 | – | – | 20% | 3.4 nM | 31 | 50 | 88.3 ± 15.7 nM | 5.4 ± 1.8 nM | – | – | – | – |
| COc1ccccc1N1CCN(CC(O)CCNC(=O)c2ccc(-c3ccccn3)cc2)CC1 (stereo not shown) [Compound 18, N-(3-Hydroxy-4-(4-(2-methoxy-phenyl)-piperazin-1-yl)-butyl)-4-pyridin-2-yl-benzamide] | 2.8 nM | 2.8 ± 0.8 nM | 101 | 1490 nM | 532 | 284 nM | 13 | – | – | – | – | 248 | 1407 | – | 12.8 ± 1.3 nM | – | – | – | – |
